Measurements taken from US9162991B2 (University of Ottawa, priority 2007, dated 2015).
Where two headings read alike, the source gives them in different places.

Experiments:
[1] = target: recombinant guinea pig liver TGase (Cavia cutleri (Guinea pig), UniProt P08587); test: biochemical; assay type: biochemical
Protocol: ENZYME INHIBITION BY COMPOUNDS 14a-c, 14l, 15a, 15d-k, 15m-q, 30a, 30r, 30t, 37a and 38a: For enzymology studies of these compounds, recombinant guinea pig liver TGase was expressed in Escherichia coli and effectively purified (Gillet, S. M. F. G. et al J. N., Prot. Exp. & Purif. 2004, 33, 256).
The mode of inhibition was determined for the representative lead compound 14a through non-linear regression of initial rate data to the Michaelis-Menten equation (FIG. 1).
For the ensuing enzymatic tests, recombinant guinea pig liver TGase was expressed in E. Coli and effectively purified.
Kinetic runs were recorded on a Cary 100 BIO UV-Visible spectrophotometer at 405 nm and 25° C., in a buffer composed of 50 mM CaCl2, 50 μM EDTA and 0.1 M MOPS (pH 7.0). All aqueous solutions were prepared using de-ionized water purified from the Millipore BioCell system. […] Factor XIIIa activity was measured using a coupled-enzyme assay (Day, N.; Keillor, J. W. Anal. Biochem. 1999, 274, 141). Factor XIIIa, was added to a final concentration of 0.89 μg/mL to a pH 8.5 solution (0.1 M Tris-HCl, 5 mM CaCl2 and 10 mM DDT) of 0.5 mM β-NADH, 3.3 mM Na-acetyl-L-lysine methyl ester, 10 mM α-ketoglutaric acid sodium salt and 297 μg/mL glutamate dehydrogenase (GDH).

[2] = test system: tissue transglutaminase (TG2); test: Cytochrome c (cytC) promoter/luciferase reporter assay in CHO cells; assay type: cell-based, Chinese Hamster; settings: 100 μM, CHO cells incubated 12 hours, luminescence of cell lysate
Text: IN VITRO STUDIES FOR COMPOUND 15a: A cytochrome c (cytC) promoter/luciferase reporter assay (illustrated in FIG. 6) was used to assess tissue transglutaminase (TG2) activity for compound 15a. In the absence of TG2, transcription factors bind to the cytC promoter region of the luciferase gene, and the level of expressed luciferase is detected from the luminescence of the Chinese Hamster Ovary (CHO) cell lysate (A). The level of effective cytC promoter is sensitive to endogenous TG2 co-expressed in CHO cells. High TG2 expression results in low promoter activity, presumably because the transcription factors that bind to the cytC promoter have Gln-rich sequences that are modified by TG2-mediated hydrolysis or transamidation (B). In the presence of TG2 inhibitors, TG2-induced silencing of the promoter is repressed and luciferase is detected in the lysate once more (C). In this assay, CHO cells are incubated in the presence of the inhibitor compound for 12 hours, after which the luminescence of cell lysate is measured, as an indication of the level of TG2 inhibition.

human caspase 3 = human caspase 3 (Homo sapiens (Human), UniProt P42574); test: Caspase 3 activity, release of p-nitroaniline from Ac-Asp-Glu-Val-Asp-pNA; assay type: biochemical
Sequence of human caspase 3 (P42574 29-175): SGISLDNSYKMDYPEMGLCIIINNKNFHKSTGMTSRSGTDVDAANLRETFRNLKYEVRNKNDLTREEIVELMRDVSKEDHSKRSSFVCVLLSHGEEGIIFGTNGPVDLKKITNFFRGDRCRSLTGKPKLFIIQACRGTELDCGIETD
Sequence of human caspase 3 (P42574 176-277): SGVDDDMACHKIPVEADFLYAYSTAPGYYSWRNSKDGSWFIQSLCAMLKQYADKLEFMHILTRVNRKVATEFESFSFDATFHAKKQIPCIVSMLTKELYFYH
Text: To examine the enzyme selectivity of this new family of TG2 inhibitors, several representative compounds (14a, 15p, 18a, 28a and 30a) were further tested as inhibitors of related enzymes. For these studies, Factor XIIIa was chosen because it is a member of the family of transglutaminase enzymes and its inhibition in vivo may lead to compromised coagulation and toxicity. Caspase 3 was also chosen because as a cysteine protease, its acyl transfer mechanism is phenomenologically similar to that of TGase. At concentrations approaching the limits of their solubility, most of those compounds had no discernable effect on the activities of either of these enzymes (data not shown). […] This selectivity bodes well for in vivo application.
The subsequent absorbance decrease was followed at 340 nm at 37° C. Caspase 3 activity was measured by monitoring the release of p-nitroaniline (pNA) (λabs=405 nm) from the peptidic substrate Ac-Asp-Glu-Val-Asp-pNA (20 μM) catalyzed by human caspase 3 (Sigma, 250 ng/mL) at pH 7.4 (18.6 mM HEPES, 1.9 mM EDTA, 0.09% CHAPS and 4.7 mM DTT).

[3] = Table 1, substituent on the cinnamoyl aromatic group, read-out: IC50 (μM), class symbol
[4] = Table 1, value in brackets, read-out: IC50
[5] = Table 2, influence of the cinnamoyl double bond, read-out: IC50 (μM), class symbol
[6] = Table 2, value in brackets or words, read-out: IC50
[7] = Table 3, influence of the acylated moiety, read-out: IC50 (μM), class symbol
[8] = Table 3, value in brackets, read-out: IC50

Sequence of recombinant guinea pig liver TGase (P08587 whole entry): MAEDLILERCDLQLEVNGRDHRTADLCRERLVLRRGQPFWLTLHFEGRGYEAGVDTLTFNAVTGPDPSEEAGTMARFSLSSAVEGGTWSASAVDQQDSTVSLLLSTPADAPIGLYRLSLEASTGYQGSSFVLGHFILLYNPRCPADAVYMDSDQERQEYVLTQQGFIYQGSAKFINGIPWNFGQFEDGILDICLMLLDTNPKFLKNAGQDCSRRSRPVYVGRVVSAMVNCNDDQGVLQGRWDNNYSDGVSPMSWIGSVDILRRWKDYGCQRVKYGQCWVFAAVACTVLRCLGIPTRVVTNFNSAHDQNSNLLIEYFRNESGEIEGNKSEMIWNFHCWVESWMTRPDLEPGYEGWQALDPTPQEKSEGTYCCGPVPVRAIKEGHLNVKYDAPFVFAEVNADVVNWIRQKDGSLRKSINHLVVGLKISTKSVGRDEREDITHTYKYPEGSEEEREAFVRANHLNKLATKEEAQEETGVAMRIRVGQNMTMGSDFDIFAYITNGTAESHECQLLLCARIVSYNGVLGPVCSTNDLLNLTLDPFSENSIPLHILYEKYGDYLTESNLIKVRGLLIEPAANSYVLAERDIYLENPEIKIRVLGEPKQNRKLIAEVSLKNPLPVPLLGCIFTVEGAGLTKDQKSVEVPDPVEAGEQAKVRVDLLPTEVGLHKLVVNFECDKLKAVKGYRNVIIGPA

SMILES | TGase inhibitory activity (in words) [1] | IC50 [1, 3] | IC50 [1, 4] | IC50 [1, 7] | also measured
O=C(/C=C/c1ccc([N+](=O)[O-])cc1)n1nnc2ccccc21 [Compound 15a, p-Nitrocinnamoyl benzotriazolyl amide] | Inhibitory activity was observed | > 50 µM | 74 µM | > 50 µM | IC50 [1, 5]: > 50 µM; IC50 [1, 6]: 74 µM; inhibition of TG2-mediated silencing of cytC promoter [2]: complete inhibition
CC(C)(C)OC(=O)Nc1ccc(C=CC(=O)n2nnc3ccccc32)cc1 [Compound 15n, p-(tert-Butoxycarbonylamino)cinnamoyl benzotriazolyl amide] |  | < 20 µM | 18 µM |  | 
CC(C)(C)OC(=O)Nc1cccc(C=CC(=O)n2nnc3ccccc32)c1 [Compound 15o, m-(tert-Butoxycarbonylamino)cinnamoyl benzotriazolyl amide] |  | 20 to 50 µM | 39 µM |  | 
O=C(Nc1ccc(C=CC(=O)n2nnc3ccccc32)cc1)OCC1c2ccccc2-c2ccccc21 [Compound 15p, p-(9-Fluorenylmethoxycarbonylamino)cinnamoyl benzotriazolyl amide] |  | 20 to 50 µM | 25 µM |  | 
COC(=O)c1ccc(/C=C/C(=O)n2nnc3ccccc32)cc1 [Compound 15q, p-(Methoxycarbonyl)cinnamoyl benzotriazolyl amide] |  | 20 to 50 µM | 27 µM |  | 
O=C(C=Cc1ccc([N+](=O)[O-])cc1)On1nnc2cccnc21 [Compound 16a, p-Nitrocinnamoyl oxyazabenzotriazolyl amide] | Inhibitory activity was observed |  |  | 20 to 50 µM | 
O=C(/C=C/c1ccc([N+](=O)[O-])cc1)OCc1ccccc1 [Compound 19a, p-Nitrocinnamoyl benzyl ester] | little inhibitory activity |  |  | > 50 µM | 
CC(C)(C)OC(=O)/C=C/c1ccc([N+](=O)[O-])cc1 [Compound 20a, p-Nitrocinnamoyl t-butyl ester] | little inhibitory activity |  |  | > 50 µM | 
O=C(/C=C/c1ccc([N+](=O)[O-])cc1)Nc1ccccc1 [Compound 22a, p-Nitrocinnamoyl phenyl amide] |  |  |  | > 50 µM | 
O=C(/C=C/c1ccc([N+](=O)[O-])cc1)Nc1cccc2ccccc12 [Compound 23a, p-Nitrocinnamoyl naphtalenyl amide] |  |  |  | > 50 µM | IC50 [1, 8]: > 200 µM
O=C(/C=C/c1ccc([N+](=O)[O-])cc1)N1CCCCC1 [Compound 24a, p-Nitrocinnamoyl piperidinyl amide] |  |  |  |  | IC50 [1]: > 50 µM
O=C(/C=C/c1ccc([N+](=O)[O-])cc1)N1CCc2ccccc21 [Compound 25a, p-Nitrocinnamoyl indolinyl amide] |  |  |  | > 50 µM | 
O=C(C=Cc1ccc([N+](=O)[O-])cc1)N(Cc1ccccc1)Cc1ccccc1 [Compound 26a, p-Nitrocinnamoyl dibenzyl amide] |  |  |  | 20 to 50 µM | IC50 [1, 8]: 57 µM; IC50 ([1]; read-out: IC50): 57 µM
CN(Cc1ccccc1)C(=O)/C=C/c1ccc([N+](=O)[O-])cc1 [Compound 27a, p-Nitrocinnamoyl methylbenzyl amide] |  |  |  | > 50 µM | 
O=C(/C=C/c1ccc([N+](=O)[O-])cc1)c1cc2ccccc2oc1=O [Compound 28a, 3-((E)-3-(4-Nitrophenyl)acryloyl)-2H-chromen-2-one] |  |  |  | 20 to 50 µM | IC50 [1, 8]: 48 µM; IC50 ([1]; read-out: IC50): 48 µM; inhibition at 6 µM (human caspase 3; at 6 μM): 28%; effect on caspase 3 activity (human caspase 3; at concentrations approaching the limits of solubility): slight inhibitory activity
O=C(/C=C/c1ccc([N+](=O)[O-])cc1)N1CCCOC1 [Compound 29a, (E)-3-(4-Nitrophenyl)-1-(1,3-oxazinan-3-yl)prop-2-en-1-one] | little inhibitory potency |  |  | > 50 µM | IC50 [1, 8]: > 200 µM
O=C(/C=C/c1ccc([N+](=O)[O-])cc1)c1cccnc1 [Compound 30a, (E)-3-(4-nitrophenyl)-1-(pyridin-3-yl)prop-2-en-1-one] | as effective as the benzotriazolyl amide inhibitors | 20 to 50 µM | 21 µM |  | 
Nc1ccc(/C=C/C(=O)c2cccnc2)cc1 [Compound 30r, (E)-3-(4-aminophenyl)-1-(pyridin-3-yl)prop-2-en-1-one] | as effective as the benzotriazolyl amide inhibitors | > 50 µM | 148 µM |  | loss of potency (fold) ([1]; relative to p-nitro azachalcone 30a): 5 fold
CC(=O)Nc1ccc(/C=C/C(=O)c2cccnc2)cc1 [Compound 30t, (E)-3-(4-acetylaminophenyl)-1-(pyridin-3-yl)prop-2-en-1-one] | as effective as the benzotriazolyl amide inhibitors | 20 to 50 µM | 28 µM |  | 
O=C(/C=C/c1ccc([N+](=O)[O-])cc1)c1ccccc1 [Compound 31a, reference compound] | lack of activity |  |  |  | 
O=C(OCc1ccc([N+](=O)[O-])cc1)n1nnc2ccccc21 [Compound 32a, p-Nitrobenzyloxycarbonylbenzotriazole] | significant loss of activity |  |  |  | IC50 [1, 5]: > 50 µM; IC50 [1, 6]: > 200 µM
O=C(CCc1ccc([N+](=O)[O-])cc1)n1nnc2ccccc21 [Compound 33a, p-Nitrohydrocinnamoyl benzotriazolylamide] | significant loss of activity |  |  |  | IC50 [1, 5]: > 50 µM; IC50 [1, 6]: > 200 µM
O=C(c1ccc([N+](=O)[O-])cc1)n1nnc2ccccc21 [Compound 34a, p-Nitrobenzoyl benzotriazolyl amide] |  |  |  |  | IC50 (μM) ([1]; Table 2, value in brackets or words): irreversible; mode of inhibition ([1]; versus acyl-donor substrate): irreversible inhibitor
O=C(/C=C/C=C/c1ccc([N+](=O)[O-])cc1)n1nnc2ccccc21 [Compound 37a, (2E,4E)-5-(4-Nitrophenyl)penta-2-4-dienoyl benzotriazolyl amide] | Neither of these two extended conjugated compounds showed significant inhibition |  |  |  | IC50 [1, 5]: > 50 µM; IC50 [1, 6]: > 200 µM
O=C(/C=C/C=C/c1ccc([N+](=O)[O-])cc1)c1cccnc1 [Compound 38a, (2E,4E)-5-(4-Nitrophenyl)-1-(pyridine-3-yl)penta-2,4-dien-1-one] | Neither of these two extended conjugated compounds showed significant inhibition |  |  |  | 
